Patent publication US20260364047A1, “METHODS OF SWITCHING NEUROPSYCHIATRIC MEDICATIONS USING ULOTARONT” (Sumitomo Pharma America, Inc., priority 2022, published 2026)
Entries after “also recorded” stand apart in the source; their conditions may differ.

Columns and labels:
[1] = Changes in body weights of rats previously treated with olanzapine
[2] = Daily food intake of rats previously treated with olanzapine; conditions: 3 mg/kg/day po
[3] = Liver triglycerides of rats previously treated with olanzapine; conditions: 3 mg/kg po; prior olanzapine 3 mg/kg po
[4] = Week 1 (Day 1-8), 3 mg/kg po, high-fat diet
[5] = Week 2 (Day 8-14), 3 mg/kg po, prior olanzapine 3 mg/kg po

Cc1cc2c(s1)Nc1ccccc1N=C2N1CCN(C)CC1 [Olanzapine, olanzapine]
Increase in body weight, previously shown in-house ([1]; 3 mg/kg po, this model, earlier in-house experiments): 4-6%
Body weight compared to vehicle treated rats (in words) ([1]; 3 mg/kg/day po): An increase in body weight; also recorded: significantly increased body weight
Time to initial effects on body weight and food intake ([1]; 3 mg/kg/day po, as early as, following dosing): 2 to 3 days
Changes in body weights, Difference vs Vehicle (A) [1, 4]: 13.07 g
Changes in body weights, Mean [1, 4]: 25.48 g
Changes in body weights, Difference vs Vehicle (A) [1, 5]: 7.55 g
Changes in body weights, Mean [1, 5]: 16.70 g
Food intake compared to vehicle treated rats (in words) [2]: significantly increased
Liver triglycerides (μmol total), % vs Vehicle (A) [3]: 100.4%
Liver triglycerides (μmol/g), % vs Vehicle (A) [3]: 100.0%
Liver triglycerides total, Mean [3]: 348 μmol total
Liver triglycerides, Mean [3]: 37.1 µmol/g
